Laboratory results from ChEMBL document CHEMBL4145610, “Total Syntheses of Lobaric Acid and Its Derivatives from the Antarctic Lichen Stereocaulon alpinum” (J Nat Prod, 2018).

molecular target: T1, Tyrosine-protein phosphatase non-receptor type 1 (Homo sapiens, UniProt P18031); experiment: Inhibition of PTP1B (1 to 298 residues) (unknown origin) using p-nitrophenylphosphate as substrate after 30 mins
T1 sequence (P18031 whole entry): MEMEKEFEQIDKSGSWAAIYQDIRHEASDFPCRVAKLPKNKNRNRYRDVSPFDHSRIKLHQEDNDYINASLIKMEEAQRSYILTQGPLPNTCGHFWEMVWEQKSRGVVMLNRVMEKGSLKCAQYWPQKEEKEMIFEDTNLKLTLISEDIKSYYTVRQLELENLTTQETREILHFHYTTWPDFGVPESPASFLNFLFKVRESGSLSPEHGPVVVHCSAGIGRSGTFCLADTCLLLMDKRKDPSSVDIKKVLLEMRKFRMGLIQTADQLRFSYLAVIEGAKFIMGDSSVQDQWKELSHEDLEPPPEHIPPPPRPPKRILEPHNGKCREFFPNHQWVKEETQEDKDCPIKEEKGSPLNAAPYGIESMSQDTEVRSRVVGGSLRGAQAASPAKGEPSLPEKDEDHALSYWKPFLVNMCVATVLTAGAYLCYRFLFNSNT

First: CCCCCc1cc(O)cc(O)c1Oc1cc(OC)cc2c1C(=O)OC2(O)CCCC (stereo not given) [SAKISACAULON A]
Second: CCCCCc1c(Oc2cc(OC)cc3c2C(=O)OC3(O)CCCC)c(O)cc(O)c1C(=O)O (stereo not given)
The IC50 of the first is 1.9-fold higher: 1700 nM for the first, 900 nM for the second.

First: CCC/C=C1\OC(=O)c2c(Oc3c(O)cc(O)c(C(=O)O)c3CCCCC)cc(OC)cc21
Second: CCCCCc1c(Oc2cc(OC)cc3c2C(=O)OC3(CCCC)OC)c(O)cc(O)c1C(=O)O (stereo not given)
The IC50 of the first is 3-fold lower: 500 nM for the first, 1500 nM for the second. The first is the more potent here.

In the case of CCCCCc1c2c(cc(O)c1C(=O)O)OC(=O)c1c(cc(OC)cc1C(=O)CCCC)O2 [LOBARIC ACID], the IC50 is reported as 800 nM.
